Assay results published in US7241795B2, “Synthesis and antimicrobial activity of novel dicationic “reversed amidines”” (The University of North Carolina at Chapel Hill, priority 2000, dated 2007).
In brackets after ≈: the same amount, converted by molar mass. Counter-ions that a name gives are not always drawn.

Tests used:
[1] = test system: d(CGCGAATTCGCG)2; test: DNA thermal melting (ΔTm); assay type: binding; conditions: oligo = d(CGCGAATTCGCG)2
[2] = test system: poly dA•dT; test: DNA thermal melting (ΔTm); assay type: binding
[3] = test system: Aspergillus fumigatus; test: Antifungal broth macrodilution susceptibility testing (MIC/MFC), mold; assay type: cell-based; conditions: Aspergillus fumigatus, strain 168.95; for MFC: read-out: Aspergillus fumigatus MFC; for MIC: read-out: Aspergillus fumigatus MIC
[4] = test system: Candida albicans; test: Antifungal broth macrodilution susceptibility testing (MIC/MFC), yeast; assay type: cell-based; conditions: for MFC / MIC: Candida albicans; for MFC: read-out: C. albicans MFC; for MIC: read-out: C. albicans MIC
[5] = test system: M. tuberculosis H37Rv; test: Microplate Alamar Blue Assay (MABA) in BACTEC 12B medium; assay type: cell-based, Mycobacterium tuberculosis; conditions: for inhibition at 6.25 µg/mL / MIC: Mycobacterium tuberculosis, H37RV; for inhibition at 6.25 µg/mL: % Inhibition at 6.25 μg/ml, read-out: MTb % Inh; for MIC: read-out: MTb MIC
[6] = reference strain C. albicans A39
[7] = lowest concentration effecting ≧90% reduction of fluorescence

Structure (SMILES) | melting point | DNA Affinities ΔTm (oligo) [1] | DNA Affinities ΔTm (AT) [2] | MFC [3] | MIC [3] | MFC [4, 6] | MIC [4, 6] | other results
N=C(Nc1ccc(-c2ccc(-c3ccc(NC(=N)c4ccccc4)cc3)s2)cc1)c1ccccc1 (hydrate or solvate) [DB 653, 2,5-Bis[4-(benzimidoyl)aminophenyl]thiophene] | 284 to 286 °C (dec.) | – | – | – | – | – | – | –
N=C(N)c1ccc(-c2ccc(-c3ccc(C(=N)N)cc3)o2)cc1 [2,5-bis [4-amidinophenyl]furan, reference compound] | – | 11.7 | 25 | – | – | – | – | –
Cc1cc(N=Nc2ccccn2)cc(C)c1-c1ccc(-c2c(C)cc(N=Nc3ccccn3)cc2C)o1 [Compound 6m, 2,5-Bis[2,6-dimethyl-4-(2-pyridylimino)aminophenyl]furan] | – | 1.2 | 5.7 | > 100 µg/mL | 10 µg/mL (≈ 20.6 µM) | > 100 µg/mL | 10 µg/mL (≈ 20.6 µM) | –
Br.Br.CC(=N)Nc1ccc(-c2ccc(-c3ccc(NC(C)=N)cc3C)o2)c(C)c1 [Compound 6f, 2,5-Bis [4-(acetimidoyl)amino-2-methylphenyl]furan Dihydrobromide] | 282.5 to 284 °C (dec.) | 2.4 | 14.5 | – | > 100 µg/mL | – | > 100 µg/mL | inhibition at 6.25 µg/mL [5]: 18%
Cl.Cl.N=C(N)Nc1ccc(-c2ccc(-c3ccc(NC(=N)N)cc3)o2)cc1 [Compound 5a, 2,5-Bis(4-guanidinophenyl)furan dihydrochloride] | – | 10.8 | 21.6 | > 100 µg/mL | 100 µg/mL | 25 µg/mL | – | activity against C. albicans, in words [4]: fungicidal
Cc1ccc(C(=N)Nc2ccc(-c3ccc(-c4ccc(NC(=N)c5ccc(C)cc5)cc4)o3)cc2)cc1.Cl.Cl [Compound 6c, 2,5-Bis [4-[(4-methylbenzimidoyl)amino]phenyl]furan Dihydrochloride] | 348 to 350.5 °C | 15.4 | >28 | – | – | – | > 100 µg/mL | MIC [5, 7]: ≤ 6.25 µg/mL
c1cc(-c2ccc(-c3ccc(N=NC4CCCCC4)cc3)o2)ccc1N=NC1CCCCC1 [Compound 6d, 2,5-Bis[4-(cyclohexylimino)aminophenyl]furan] | – | 12.8 | 26.7 | > 100 µg/mL | 100 µg/mL (≈ 227 µM) | – | > 100 µg/mL | activity against M. tuberculosis, in words [5]: some activity; MIC [5, 7]: ≤ 6.25 µg/mL
COc1cc(N=Nc2ccccn2)ccc1-c1ccc(-c2ccc(N=Nc3ccccn3)cc2OC)o1 (as salt: hydrochloride) [Compound 6k, 2,5-Bis[2-methoxy-4-(2-pyridylimino)aminophenyl]furan] | 196 to 197 °C | – | – | – | – | – | – | –
Clc1cc(N=Nc2ccccn2)ccc1-c1ccc(-c2ccc(N=Nc3ccccn3)cc2Cl)o1 (as salt: hydrochloride) [Compound 6l, 2,5-Bis[2-chloro-4-(2-pyridylimino)aminophenyl]furan] | 189 to 190 °C | – | – | – | – | – | – | –
N=C(Nc1ccc(-c2ccc(-c3ccc(NC(=N)c4ccccc4)cc3)s2)cc1)c1ccccc1 [DB 653, 2,5-Bis[4-(benzimidoyl)aminophenyl]thiophene] | – | 12.8 | 20.2 | – | > 100 µg/mL | – | > 100 µg/mL | –
Cc1cc(NC(=N)N)cc(C)c1-c1ccc(-c2c(C)cc(NC(=N)N)cc2C)o1.Cl.Cl [Compound 5f, 2,5-Bis(4-guanidino-2,6-dimethylphenyl)furan dihydrochloride] | – | 1.4 | 2.7 | – | – | – | – | –
COc1cc(NC(=N)N)ccc1-c1ccc(-c2ccc(NC(=N)N)cc2OC)o1.Cl.Cl [Compound 5c, 2,5-Bis(4-guanidino-2-methoxyphenyl)furan dihydrochloride] | – | 2.8 | 15.2 | 100 µg/mL | 100 µg/mL | 100 µg/mL | 10 µg/mL | MIC [5, 7]: 16 µg/mL
Cc1ccc(N=Nc2ccc(-c3ccc(-c4ccc(N=Nc5ccc(C)cn5)cc4C)o3)c(C)c2)nc1 (as salt: hydrochloride) [Compound 6j, 2,5-Bis[2-methyl-4-(5-methyl-2-pyridylimino)aminophenyl]furan] | 156 to 158 °C | – | – | – | – | – | – | –
c1ccc(N=Nc2ccc(-c3ccc(-c4ccc(N=Nc5ccccn5)cc4)o3)cc2)nc1 (as salt: hydrochloride) (hydrate or solvate) [Compound 6a, 2,5-Bis[4-(2-pyridylimino)aminophenyl]furan] | 221 to 223 °C | – | – | – | – | – | – | –
Cc1cc(NC(=N)c2ccccc2)ccc1-c1ccc(-c2ccc(NC(=N)c3ccccc3)cc2C)o1 [Compound 6g, 2,5-Bis[4-(benzimidoyl)amino-2-methylphenyl]furan] | – | 7.8 | 24.9 | – | – | 6.25 µg/mL (≈ 12.9 µM) | 3.12 µg/mL (≈ 6.44 µM) | –
Cl.Cl.N=C(N)Nc1ccc(-c2ccc(-c3ccc(NC(=N)N)cc3C(F)(F)F)o2)c(C(F)(F)F)c1 [Compound 5e, 2,5-Bis (4-guanidino-2-trifluoromethylphenyl) furan dihydrochloride] | – | – | 5.9 | 100 µg/mL | 100 µg/mL | 10 µg/mL | 10 µg/mL | MIC [5, 7]: 8 µg/mL
Cl.Cl.N=C(N)Nc1ccc(-c2ccc(-c3ccc(NC(=N)N)cc3Cl)o2)c(Cl)c1 [Compound 5d, 2,5-Bis(2-chloro-4-guanidinophenyl)furan dihydrochloride] | 300 to 304 °C (dec.) | 4.7 | 26.1 | 100 µg/mL | 100 µg/mL | 100 µg/mL | 10 µg/mL | MIC [5, 7]: 4 µg/mL
Br.Br.CC(=N)Nc1ccc(-c2ccc(-c3ccc(NC(C)=N)cc3)o2)cc1 [Compound 6e, 2,5-Bis[4-(acetimidoyl)aminophenyl]furan Dihydrobromide] | 307 to 309.5 °C (dec.) | 6.0 | 15.9 | > 100 µg/mL | 100 µg/mL | – | > 100 µg/mL | inhibition at 6.25 µg/mL [5]: 0%
N=C(N)Nc1ccc(-c2ccc(-c3ccc(NC(=N)N)cc3)s2)cc1 [DB 686] | – | – | – | – | – | – | – | MTb MIC ([5]; H37Rv, lowest concentration effecting ≧90% reduction of fluorescence): <1 µg/mL; C. albicans MFC [4, 6]: 4.17 µg/mL; C. albicans MIC [4, 6]: 4.17 µg/mL
Cc1cc(NC(=N)N)ccc1-c1ccc(-c2ccc(NC(=N)N)cc2C)o1.Cl.Cl [Compound 5b, 2,5-Bis(4-guanidino-2-methylphenyl)furan dihydrochloride] | 265 to 271 °C (dec.) | 6.9 | 17.8 | 33.4 µg/mL | 33.4 µg/mL | 2.08 µg/mL | 1 to 3 µg/mL | MIC [5, 7]: 1 to 3 µg/mL; activity against C. albicans, in words [4]: fungicidal
Cc1cc(N=Nc2ccc3ccccc3n2)ccc1-c1ccc(-c2ccc(N=Nc3ccc4ccccc4n3)cc2C)o1 (as salt: hydrochloride) [Compound 6i, 2,5-Bis[2-methyl-4-(2-quinolylimino)aminophenyl]furan] | 168 to 169 °C | – | – | – | – | – | – | –
OC(Cn1cncn1)(Cn1cncn1)c1ccc(F)cc1F [Fluconazole, reference compound] | – | – | – | – | – | – | – | activity against C. albicans, in words [4]: fungistatic
Cl.Cl.N=C(Nc1ccc(-c2ccc(-c3ccc(NC(=N)c4ccccc4)cc3)o2)cc1)c1ccccc1 [Compound 6b, 2,5-Bis[4-(benzimidoylamino)phenyl]furan Dihydrochloride] | – | 15.0 | 28.6 | – | – | 50 µg/mL | 25 µg/mL | –
